In assay [1] the target is Recombinant human CSF1R kinase (Homo sapiens (Human), UniProt P07333). The class given is biochemical. The conditions noted are these: Z-LYTE Tyr 1 peptide substrate.
Protocol: Measurement of CSF1R Kinase Activity at Molecular Level
1. Reagents and materials:
• Z-LYTE™ Tyr 1 peptide substrate: Invitrogen, PV3190; • 5× kinase buffer: Invitrogen, PV3189; • 10 mM ATP: Invitrogen, PV3227; • Development reagent B: Invitrogen, PV3295; • Development buffer: Invitrogen, P3127; • Stopping solution: Invitrogen, P3094; • Recombinant human CSF1R kinase: Invitrogen, PR4598A; • 384 well plate, black: Corning, 3575; Envision: Perkin Elmer. 2. Preparation of reaction solutions
1) 1.33× kinase buffer: 5× kinase buffer was diluted to a 1.33× kinase buffer with ddH2O.
2) Dilution of a 4× test compound: The test compound was diluted in gradient to 4-fold the reaction concentration and the concentration of DMSO was kept at 8%. The final concentration of the compound in reaction was: 1, 0.33, 0.11, 0.037, 0.012, 0.004, 0.0014, 0.00046 μM, and the final concentration of DMSO was 2%.
3) A mixture of kinase/peptide substrate: In 1.33× kinase buffer, the kinase and Z-LYTE™ Tyr 1 peptide substrate were diluted to 0.12 μg/mL and 4 μM, respectively, to prepare a mixture of kinase/peptide substrate. The mixture was mixed gently with a pipette.
4) A phosphorylated peptide substrate solution (PP solution): 0.4 μL of Z-LYTE™ Tyr1 phosphorylated peptide substrate was added to 99.6 μL of 1.33× kinase buffer.
5) ATP solution: 10 mM of ATP was diluted to 760 μM with 1.33× kinase buffer to prepare ATP solution.
6) Development solution: Development reagent B was diluted with Development buffer at a ratio of 1:200.
1) Kinase reaction (10 μL system)
2.5 μL of 4× test compound was added to each reaction well of the 384 plate, and the corresponding volume of 8% DMSO was added to the control well. The plate was placed on ice. 5 μL of a mixture of kinase/peptide substrate, 2.5 μL of kinase buffer and ATP solution were successively added to each well. Three control groups were set up: Group C1 contains only kinase buffer, group C2 contains the mixture of kinase/peptide substrate, kinase buffer and ATP, and group C3 contains 5 μL of PP solution. After adding the reaction components, the 384-well plate was sealed and incubated at 25-30° C. for 1 h in dark.
5 μL of Development solution was added to each well, sealed and incubated at 25-30° C. for another 1 h in dark.
3) Reaction stopping and plate reading
5 μL of stopping solution was added to each well. The Coumarin value (excitation at 400 nm, emission at 445 nm) and Fluorescein value (excitation at 400 nm, emission at 520 nm) were measured, respectively.
ER (emission ratio): Coumarin emission read-out (445 nm)/Fluorescein emission read-out (520 nm); • C3 445 nm: 100% phosphorylated Coumarin emission read-out; • C3 520 nm: 100% phosphorylated Fluorescein emission read-out; • C1 445 nm: 0% phosphorylated Coumarin emission read-out; • C1 520 nm: 0% phosphorylated Fluorescein emission read-out. Inhibition rate % (IR)=[1−% phosphorylation ratetest sample/100% phosphorylation ratecontrol]×100%
% phosphorylation ratetest sample: phosphorylation rate of the test compound; • 100% phosphorylation ratecontrol: phosphorylation rate of C3 control group.
5. IC50 values: calculated by using software XL-Fit™ (version 5.3) supplied by ID Business Solutions (Guildford, UK), which is an additional software to Microsoft Excel.
The target of assay [2] is CSF1R phosphorylation in THP-1 cells (Homo sapiens (Human), UniProt P07333). The assay is described as follows: Detection of CSF1R phosphorylation activity at cell level (THP-1, M-CSF stimulated, ELISA). The class given is cell-based. The conditions noted are these: p-CSF1R ELISA, compound 60 min, 300 ng/mL M-CSF 1 min. The protocol: Detection of CSF1R Phosphorylation Activity at Cell Level
THP-1 (ATCC), human acute monocytic leukemia cells. The cells were cultured in an RPMI 1640 medium containing 10% FBS.
(§1) 2. Reagents and instruments
• Human phosphorylation-CSF1R ELISA kit: R&D, #DYC3268-2; • RPMI 1640 culture solution: GIBCO, 910491; • Human M-CSF recombinant cytokine: R&D, 9216-MC-500; • Cell lysis buffer: Cell Signal, 99803S; • 1×PBS buffer (1 L): 8.0 g of NaCl, 0.2 g of KCl, 3.58 g of Na2HPO4-12H2O, 0.24 g of KH2PO4 were dissolved in 1 L of dd H2O, and the pH was adjusted to 7.4; • Blocking solution: PBS buffer containing 1% BSA; • PBST washing liquid: PBS buffer containing 0.05% Tween-20; • Chromogenic substrate: R&D, #DY999; • 2N H2SO4; • Microwell plate reader: Labsystems Multiskan K3: Thermo; Envision: Perkin Elmer; • ELISA plate: Corning, #9018; • Cell culture plate: Facol, #353027. 3. Treatment of cells and preparation of lysis buffer
THP-1 cells were resuspended in RPMI-1640 culture solution containing 2% FBS, and the culture was added to a 96-well plate at a density of 5×10^4/well, 50 μL/well, and cultured in a cell incubator at 5% CO2 and 37° C. overnight; The test compound was diluted with a serum-free RPMI-1640 medium to 3, 1.1, 0.37, 0.12, 0.04, 0.014, 0.005 and 0.002 μM, and the concentration of DMSO was 5%. 5 μL of the diluted compound was added to the 50 μL cell culture system, the culture was cultured in a 5% CO2, 37° C. cell incubator for 60 min, 300 ng/mL of M-CSF was added to the cells, and the mixture was stimulated in the 37° C. cell incubator for 1 min, added 50 μL of cell lysis buffer, and stored in a refrigerator at −80° C.
100 μL/well of the p-CSF1R capture antibody diluted to 0.8 μg/mL with PBS was added to the ELISA plate, and the plate was coated on a shaker at room temperature overnight. The culture was washed with PBST, and then added blocking solution and incubated at room temperature for 2 h. The culture was washed with PBST, added 90 μL of cell lysis buffer, and incubated on a shaker at 25° C. for 2 h. The plate was washed with PBST three times, added 100 μL of anti-p-tyrosine-HRP detection antibody diluted with 0.1% PBS-BSA diluent, and incubated on a shaker at 25° C. for 2 h. The plate was washed with PBST washing liquid, added 100 μL of chromogenic substrate and incubated at room temperature for 10-20 min. The reaction was stopped by adding 50 μL of 2N H2SO4. The optical density signal (450/570 nm) of each well was detected in Labsystems Multiskan K3 or Envision.
wherein • Drug-treated well read-out: indicating the optical density signal of a cell well with the test compound treatment. • Background read-out: indicating the optical density signal of a well without cells but with cell lysis buffer. • Cell well read-out: indicating the optical density signal of a cell well not treated with the compound. 6. Calculation of IC50: obtained by using XL-Fit 5.3 software. 7. Test results

The next assay has as its system Ba/F3^BCR-FMS-11 cells. The assay is described as follows: Cell proliferation experiment (Ba/F3^BCR-FMS-11, cckit-8). It is filed as cell-based, mouse. The conditions noted are these: Ba/F3^BCR-FMS-11 cell proliferation. The protocol: Cell Proliferation Experiment
Ba/F3^BCR-FMS-11, mouse primary B lymphocytes stably expressing the BCR-FMS fusion gene. The cells were cultured in an RPMI 1640 medium containing 10% FBS.
as §1
• cckit-8 kit: Dojindo, 9 CK04; • Envision: Perkin Elmer; • Cell culture plate: Facol, 9353027. 3. Experimental steps
The BCR-FMS fusion gene was transfected into Ba/F3 cells, and the cell line Ba/F3^BCR-FMS-11 that stably expresses BCR-FMS and grows depending on CSF-1R was screened. Ba/F3^BCR-FMS-11 cell proliferation experiments is completed by using the Cell Counting kit cckit-8 in a 96-well plate. In a 96-well plate, 5000/well of Ba/F3^BCR-FMS-11 cells were inoculated at 100 μL/well. […] 10 μL of the compound dilutions with the above 8 concentrations were added to the culture cell wells. The culture was incubated in a 37° C. and 5% CO2 cell incubator for 72 hours. 10 μL of Cell Counting kit cckit-8 detection reagent was added to each well, and incubated at 37° C. and 5% CO2 in a cell incubator for another 1 h. The optical density absorption value at 450 nm of each well was detected by using Perkin Elmer Envision instrument.
wherein • Drug-treated well read-out: indicating the optical density signal of a cell well with the test compound treatment. • Cell well read-out: indicating the optical density signal of a cell well not treated with the test compound (only 0.5% DMSO). • Background read-out: indicating the optical density signal of a well with the cell medium. 5. Calculation of IC50: obtained by using XL-Fit 5.3 software. 6. Test results

pIC50: −log10 of the molar value.

CSF1R phosphorylation in THP-1 cells, sequence (P07333 20-972): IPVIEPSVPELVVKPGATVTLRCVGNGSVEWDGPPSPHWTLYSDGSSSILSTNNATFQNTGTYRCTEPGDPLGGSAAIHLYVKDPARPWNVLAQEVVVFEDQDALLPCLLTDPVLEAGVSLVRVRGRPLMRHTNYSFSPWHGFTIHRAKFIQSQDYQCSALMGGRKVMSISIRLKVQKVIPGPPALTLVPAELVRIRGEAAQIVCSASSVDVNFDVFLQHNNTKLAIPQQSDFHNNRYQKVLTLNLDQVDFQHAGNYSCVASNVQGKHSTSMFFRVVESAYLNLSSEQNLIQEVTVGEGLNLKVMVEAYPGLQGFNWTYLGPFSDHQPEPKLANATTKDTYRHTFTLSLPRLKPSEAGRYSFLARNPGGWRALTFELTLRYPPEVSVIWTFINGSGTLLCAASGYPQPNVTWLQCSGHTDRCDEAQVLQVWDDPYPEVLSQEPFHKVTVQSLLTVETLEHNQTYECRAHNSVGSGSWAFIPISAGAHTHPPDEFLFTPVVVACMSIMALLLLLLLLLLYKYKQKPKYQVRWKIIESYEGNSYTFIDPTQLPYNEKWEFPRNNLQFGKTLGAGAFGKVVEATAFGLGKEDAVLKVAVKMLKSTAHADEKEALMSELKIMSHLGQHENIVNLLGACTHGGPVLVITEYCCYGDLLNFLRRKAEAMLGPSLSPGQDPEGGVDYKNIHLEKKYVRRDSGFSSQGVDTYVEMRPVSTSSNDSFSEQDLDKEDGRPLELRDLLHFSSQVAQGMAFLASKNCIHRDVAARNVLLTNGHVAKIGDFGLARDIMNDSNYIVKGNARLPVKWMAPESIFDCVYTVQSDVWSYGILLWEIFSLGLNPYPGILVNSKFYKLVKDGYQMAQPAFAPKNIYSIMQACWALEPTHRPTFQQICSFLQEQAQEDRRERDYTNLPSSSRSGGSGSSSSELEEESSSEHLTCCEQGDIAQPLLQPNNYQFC
Recombinant human CSF1R kinase, sequence (P07333 20-972): as above

As for `CC(C)n1cccc(C(=O)Nc2ccc(Oc3ccnc(-c4cnn(C)c4)n3)cn2)c1=O` [Compound 6, 1-isopropyl-N-(5-((2-(1-methyl-1H-pyrazol-4-yl)pyrimidin-4-yl)oxy)pyridin-2-yl)-2-oxo-1,2-dihydropyridine-3-carboxamide], the negative-log IC50 (pIC50) in assay [1] is 8.15; in assay [2] it was 7.68; with Ba/F3^BCR-FMS-11 cells (Mus musculus, 72 h), 7.82.
Turning to `Cc1ncc(C(=O)Nc2ccc(Oc3ccnc(-c4cnn(C)c4)n3)cn2)c(=O)n1C` [Compound 7, 1,2-dimethyl-N-(5-((2-(1-methyl-1H-pyrazol-4-yl)pyrimidin-4-yl)oxy)pyridin-2-yl)-6-oxo-1,6-dihydropyrimidine-5-carboxamide], the pIC50 in assay [1] was 7.17; in assay [2], 7.60; in the assay with Ba/F3^BCR-FMS-11 cells (Mus musculus, 72 h) it was 7.41.
Consider `Cc1ncc(C(=O)Nc2ccc(Oc3ccnc(-c4cnn(C)c4)c3)cn2)c(=O)n1C` [Compound 8, 1,2-dimethyl-N-(5-((2-(1-methyl-1H-pyrazol-4-yl)pyridin-4-yl)oxy)pyridin-2-yl)-6-oxo-1,6-dihydropyrimidine-5-carboxamide], for which the pIC50 in assay [1] is 8.40; in assay [2] it was 8.40; in the assay on Ba/F3^BCR-FMS-11 cells (Mus musculus, 72 h), 8.15.
`Cn1cc(-c2cc(Oc3ccc(NC(=O)c4ccc[nH]c4=O)nc3)ccn2)cn1` [Compound 9, N-(5-((2-(1-methyl-1H-pyrazol-4-yl)pyridin-4-yl)oxy)pyridin-2-yl)-2-oxo-1,2-dihydropyridine-3-carboxamide]: the pIC50 is 7.92 in assay [1]; 6.98 in assay [2]; 6.97 in the assay with Ba/F3^BCR-FMS-11 cells (Mus musculus, 72 h).
In the case of `Cn1cc(-c2cc(Oc3ccc(NC(=O)c4cncn(C)c4=O)nc3)ccn2)cn1` [Compound 10], the pIC50 is 7.82 in assay [1]; 7.21 in assay [2]; 7.06 in the assay with Ba/F3^BCR-FMS-11 cells (Mus musculus, 72 h).
For `Cn1cc(-c2cc(Oc3ccc(NC(=O)c4cnc5n(c4=O)CCC5)nc3)ccn2)cn1` [Compound 11], the pIC50 is 8.30 in assay [1]; 8.22 in assay [2]; 8.22 with Ba/F3^BCR-FMS-11 cells (Mus musculus, 72 h).
With `Cc1c(F)cc(C(=O)Nc2ccc(Oc3ccnc(-c4cnn(C)c4)c3)cn2)c(=O)n1C` [Compound 12], the negative logarithm of the IC50 (pIC50) in assay [1] was 8.05; in assay [2], 6.84; with Ba/F3^BCR-FMS-11 cells (Mus musculus, 72 h), 7.18.
For the molecule `Cc1ncn(C)c(=O)c1C(=O)Nc1ccc(Oc2ccnc(-c3cnn(C)c3)c2)cn1` [Compound 13], the pIC50 is 7.04 in assay [1]; 7.38 in assay [2]; 6.64 in the assay on Ba/F3^BCR-FMS-11 cells (Mus musculus, 72 h).
As for `CC(C)n1cccc(C(=O)Nc2ccc(Oc3ccnc(-c4ncn(C)n4)c3)cn2)c1=O` [Compound 15], the pIC50 in assay [1] was 7.47; in assay [2] it was 6.67; in the assay on Ba/F3^BCR-FMS-11 cells (72 hours) it was 6.31.
`Cc1cnc(Nc2cc(Oc3ccc(NC(=O)c4cnc(C)n(C)c4=O)nc3)ccn2)s1` [Compound 16]: the negative logarithm of the IC50 (pIC50) is 7.06 in assay [1]; 7.70 in assay [2]; 7.35 in the assay on Ba/F3^BCR-FMS-11 cells (Mus musculus, 72 h).
As to `COc1cc(Oc2ccnc(-c3cnn(C)c3)c2)ccc1NC(=O)c1cccn(C(C)C)c1=O` [Compound 18], the pIC50 in assay [1] is 7.89; in assay [2], 7.22; with Ba/F3^BCR-FMS-11 cells (Mus musculus, 72 h) it was 7.24.
For the molecule `CC(C)n1cccc(C(=O)Nc2ccc(Oc3ccnc(-c4cnn(C)c4)c3)cc2F)c1=O` [Compound 20], the pIC50 is 8.10 in assay [1]; 6.96 in assay [2]; 7.36 in the assay on Ba/F3^BCR-FMS-11 cells (Mus musculus, 72 h).
With `Cn1cnc(-c2cc(Oc3cnc(NC(=O)c4cccn(C)c4=O)c(F)c3)ccn2)c1` [Compound 21], the pIC50 was 7.55 in assay [1]; 7.37 in assay [2]; 7.14 in the assay with Ba/F3^BCR-FMS-11 cells (Mus musculus, 72 h).
As for `Cn1cc(-c2cc(Oc3cnc(NC(=O)c4cccn(C)c4=O)c(F)c3)ccn2)cn1` [Compound 22], the pIC50 in assay [1] was 7.96; in assay [2] it was 8.00; in the assay on Ba/F3^BCR-FMS-11 cells (Mus musculus, 72 h) it was 7.85.
For the molecule `Cc1ncc(C(=O)Nc2ncc(Oc3ccnc(-c4cnn(C)c4)c3)cc2F)c(=O)n1C` [Compound 23], the pIC50 was 7.66 in assay [1]; 7.42 in assay [2]; 7.35 in the assay with Ba/F3^BCR-FMS-11 cells (Mus musculus, 72 h).

A word on the pIC50: it is −log10 of the IC50, conventionally taken in molar units.

The values above are taken from US12435062B2, “Amide compounds and uses thereof” (HUTCHISON MEDIPHARMA LIMITED, priority 2020, dated 2025).
